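GI50: concentration for 50% inhibition of growth. TGI denotes the concentration required for complete inhibition of growth.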
Legend:
Assay in all cases: NCI tumour cell line growth inhibition, 384-well format
[1] = system: 786-0 renal
[2] = system: A498 renal
[3] = system: A549 NSCLC
[4] = system: ACHN renal
[5] = system: BT-549 breast
[6] = system: CAKI-1 renal
[7] = system: CCRF-CEM leukemia
[8] = system: COLO 205 colon
[9] = system: HCC-2998 colon
[10] = system: HCT-15 colon
[11] = system: HL-60(TB) leukemia
[12] = system: HOP-62 NSCLC
[13] = system: HOP-92 NSCLC
[14] = system: HT29 colon
[15] = system: IGROV1 ovarian
[16] = system: K-562 leukemia
[17] = system: KM12 colon
[18] = system: LOX IMVI melanoma
[19] = system: M14 melanoma
[20] = system: MALME-3M melanoma
[21] = system: MDA-MB-231 breast
[22] = system: MDA-MB-435 melanoma
[23] = system: MDA-MB-468 breast
[24] = system: MOLT-4 leukemia
[25] = system: NCI-H226 lung
[26] = system: NCI-H23 lung
[27] = system: NCI-H322M lung
[28] = system: NCI-H460 NSCLC
[29] = system: NCI-H522 lung
[30] = system: NCI/ADR-RES ovarian
[31] = system: OVCAR-3 ovarian
[32] = system: OVCAR-4 ovarian
[33] = system: OVCAR-5 ovarian
[34] = system: OVCAR-8 ovarian
[35] = system: PC-3 prostate
[36] = system: RPMI-8226 leukemia
[37] = system: RXF 393 renal
[38] = system: SF-268 CNS
[39] = system: SF-295 CNS
[40] = system: SF-539 CNS
[41] = system: SK-MEL-2 melanoma
[42] = system: SK-MEL-28 melanoma
[43] = system: SK-MEL-5 melanoma
[44] = system: SK-OV-3 ovarian
[45] = system: SN12C renal
[46] = system: SNB-19 CNS
[47] = system: SR leukemia
[48] = system: SW-620 colon
[49] = system: T-47D breast
[50] = system: TK-10 renal
[51] = system: U251 glioblastoma
[52] = system: UACC-257 melanoma
[53] = system: UACC-62 melanoma
[54] = system: UO-31 renal
[55] = system: DU-145 prostate
[56] = system: HCT-116 colon
[57] = system: MCF7 breast

CN(C)C/C=C/C(=O)Nc1ccc(C(=O)N[C@@]2(C)CCC[C@@H](Nc3ncc(Cl)c(-c4c[nH]c5ccccc45)n3)C2)nc1
GI50 [1]: < 10 nM | TGI [1]: 26.2 nM | GI50 [2]: < 10 nM | TGI [2]: 15.2 nM | GI50 [3]: < 10 nM | TGI [3]: 116 nM | GI50 [4]: < 10 nM | TGI [4]: 88.6 nM | GI50 [5]: < 10 nM | TGI [5]: < 10 nM | GI50 [6]: < 10 nM | TGI [6]: 103 nM | GI50 [7]: < 10 nM | TGI [7]: < 10 nM | GI50 [8]: < 10 nM | TGI [8]: < 10 nM | GI50 [9]: < 10 nM | TGI [9]: 15.8 nM | GI50 [10]: < 10 nM | TGI [10]: 64.6 nM | GI50 [11]: < 10 nM | TGI [11]: < 10 nM | GI50 [12]: < 10 nM | TGI [12]: < 10 nM | GI50 [13]: < 10 nM | TGI [13]: 136 nM | GI50 [14]: < 10 nM | TGI [14]: 72.2 nM | GI50 [15]: < 10 nM | TGI [15]: 127 nM | GI50 [16]: < 10 nM | TGI [16]: 43.5 nM | GI50 [17]: < 10 nM | TGI [17]: 10.8 nM | GI50 [18]: < 10 nM | TGI [18]: < 10 nM | GI50 [19]: < 10 nM | TGI [19]: 13.7 nM | GI50 [20]: 12.5 nM | TGI [20]: 26.3 nM | GI50 [21]: < 10 nM | TGI [21]: 115 nM | GI50 [22]: < 10 nM | TGI [22]: 15.7 nM | GI50 [23]: < 10 nM | TGI [23]: < 10 nM | GI50 [24]: < 10 nM | TGI [24]: < 10 nM | GI50 [25]: < 10 nM | TGI [25]: 34.1 nM | GI50 [26]: < 10 nM | TGI [26]: 14.4 nM | GI50 [27]: < 10 nM | TGI [27]: 41.3 nM | GI50 [28]: < 10 nM | TGI [28]: < 10 nM | GI50 [29]: < 10 nM | TGI [29]: < 10 nM | GI50 [30]: 202 nM | TGI [30]: 1090 nM | GI50 [31]: < 10 nM | TGI [31]: 12.9 nM | GI50 [32]: < 10 nM | TGI [32]: 35.9 nM | GI50 [33]: < 10 nM | TGI [33]: 1310 nM | GI50 [34]: < 10 nM | TGI [34]: 27.8 nM | GI50 [35]: < 10 nM | TGI [35]: 44.4 nM | GI50 [36]: < 10 nM | TGI [36]: < 10 nM | GI50 [37]: < 10 nM | TGI [37]: < 10 nM | GI50 [38]: < 10 nM | TGI [38]: 16.2 nM | GI50 [39]: < 10 nM | TGI [39]: 67.5 nM | GI50 [40]: < 10 nM | TGI [40]: 20.4 nM | GI50 [41]: < 10 nM | TGI [41]: 10.9 nM | GI50 [42]: < 10 nM | TGI [42]: < 10 nM | GI50 [43]: < 10 nM | TGI [43]: 13.3 nM | GI50 [44]: < 10 nM | TGI [44]: 85.4 nM | GI50 [45]: < 10 nM | TGI [45]: 17.2 nM | GI50 [46]: < 10 nM | TGI [46]: 1340 nM | GI50 [47]: < 10 nM | TGI [47]: < 10 nM | GI50 [48]: < 10 nM | TGI [48]: 22.9 nM | GI50 [49]: 15.6 nM | TGI [49]: 144 nM | GI50 [50]: 16.7 nM | TGI [50]: 101 nM | GI50 [51]: < 10 nM | TGI [51]: 30.2 nM | GI50 [52]: < 10 nM | TGI [52]: 15.4 nM | GI50 [53]: < 10 nM | TGI [53]: < 10 nM | GI50 [54]: 14 nM | TGI [54]: 42 nM

COc1cccc2c1C(=N)c1c(O)c3c(c(O)c1C2=O)C[C@@](O)(C(C)=O)C[C@@H]3O[C@H]1C[C@H](N)[C@H](O)[C@H](C)O1
GI50 [1]: 86.9 nM | TGI [1]: 244 nM | GI50 [2]: 91.9 nM | TGI [2]: 1070 nM | GI50 [3]: 76.1 nM | TGI [3]: 334 nM | GI50 [4]: 120 nM | TGI [4]: 567 nM | GI50 [5]: 116 nM | TGI [5]: 335 nM | GI50 [6]: 90.9 nM | TGI [6]: 668 nM | GI50 [7]: 10.3 nM | TGI [7]: 22.8 nM | GI50 [8]: 44.8 nM | TGI [8]: 231 nM | GI50 [55]: 108 nM | TGI [55]: 399 nM | GI50 [9]: 114 nM | TGI [9]: 272 nM | GI50 [56]: 46.7 nM | TGI [56]: 1010 nM | GI50 [10]: 417 nM | TGI [10]: 1560 nM | GI50 [11]: < 10 nM | TGI [11]: < 10 nM | GI50 [12]: 51.3 nM | TGI [12]: 173 nM | GI50 [13]: 62.9 nM | TGI [13]: 278 nM | GI50 [14]: 119 nM | TGI [14]: 250 nM | GI50 [15]: 343 nM | TGI [15]: 2010 nM | GI50 [16]: 90.4 nM | TGI [16]: 452 nM | GI50 [17]: 66 nM | TGI [17]: 206 nM | GI50 [18]: 144 nM | TGI [18]: 338 nM | GI50 [19]: 73.6 nM | TGI [19]: 445 nM | GI50 [20]: 220 nM | TGI [20]: 953 nM | GI50 [57]: 61.2 nM | TGI [57]: 1360 nM | GI50 [21]: 181 nM | TGI [21]: 379 nM | GI50 [22]: 166 nM | TGI [22]: 1090 nM | GI50 [23]: 41.8 nM | TGI [23]: 153 nM | GI50 [24]: < 10 nM | TGI [24]: < 10 nM | GI50 [25]: 124 nM | TGI [25]: 318 nM | GI50 [26]: 47.9 nM | TGI [26]: 200 nM | GI50 [27]: 637 nM | TGI [27]: 2080 nM | GI50 [28]: 28.2 nM | TGI [28]: 126 nM | GI50 [29]: 55.3 nM | TGI [29]: 206 nM | GI50 [30]: 7530 nM | TGI [30]: 25400 nM | GI50 [31]: 102 nM | TGI [31]: 353 nM | GI50 [32]: 387 nM | TGI [32]: 1370 nM | GI50 [33]: 179 nM | TGI [33]: 583 nM | GI50 [34]: 42.9 nM | TGI [34]: 745 nM | GI50 [35]: 224 nM | TGI [35]: 1330 nM | GI50 [36]: < 10 nM | TGI [36]: 22.3 nM | GI50 [37]: 41.7 nM | TGI [37]: 147 nM | GI50 [38]: 59.9 nM | TGI [38]: 262 nM | GI50 [39]: 103 nM | TGI [39]: 345 nM | GI50 [40]: 36.6 nM | TGI [40]: 119 nM | GI50 [41]: 184 nM | TGI [41]: 345 nM | GI50 [42]: 131 nM | TGI [42]: 468 nM | GI50 [43]: 97.3 nM | TGI [43]: 437 nM | GI50 [44]: 88.4 nM | TGI [44]: 270 nM | GI50 [45]: 48.7 nM | TGI [45]: 185 nM | GI50 [46]: 63.3 nM | TGI [46]: 376 nM | GI50 [47]: < 10 nM | TGI [47]: < 10 nM | GI50 [48]: 42.8 nM | TGI [48]: 281 nM | GI50 [49]: 61.1 nM | TGI [49]: 451 nM | GI50 [50]: 128 nM | TGI [50]: 403 nM | GI50 [51]: 50.9 nM | TGI [51]: 187 nM | GI50 [52]: 455 nM | TGI [52]: 1820 nM | GI50 [53]: 71.6 nM | TGI [53]: 466 nM | GI50 [54]: 707 nM | TGI [54]: 2090 nM
